Assays:
[1] = system: AKT and S6 phosphorylation in MCF7aro cells; test: Western blot assessment of AKT and S6 phosphorylation status in MCF7aro cell lysates; assay type: cell-based, human; conditions: 24 hours, 100 nM IGF Ab 60833, 0.32 nM everolimus, versus vehicle (DMSO) control
Procedure: 1.8×10^6 MCF7aro cells were plated in 10 cm dishes in starvation medium (MEM alpha without phenol red, supplemented with 10% charcoal stripped FBS, 2 mM GlutaMAX and […]). After overnight incubation, medium was changed to assay medium (MEM alpha without phenol red, supplemented with 10% charcoal stripped FBS, 2 mM GlutaMAX, 1 mM sodium pyruvate and 1 nM androstenedione) and the cells were treated with 100 nM of IGF Ab 60833 or 0.32 nM of everolimus or a combination of antibody and mTORC1 inhibitor. As a control, cells were treated with vehicle (DMSO) only. At 24 h post treatment, the cells were lysed on ice with MSD Tris Lysis Buffer containing 20 mM Tris pH 7.5, 150 mM NaCl, 1 mM EDTA, 1 mM EGTA, 1% Triton X-100, completed with protease and phosphatase inhibitor cocktails. Prior to use, freshly prepared 2 mM PMSF was added to the buffer.
(§1) Total protein was isolated and protein concentration was quantified by Bradford protein assay according to the manufacturer's instructions. […]
The effect of IGF Ab 60833 and everolimus, as single agents and in combination, on the phosphorylation of AKT at serine 473 (pAKT S473) and threonine 308 (pAKT T308), and of S6 (pS6) at serine 235/236 was monitored by Western blot analysis of MCF7aro cell lysates prepared 24 hours post treatment.

[2] = system: cleaved PARP in MCF7aro cells; test: Cleaved PARP (apoptosis) in MCF7aro cell lysates by Western blot and MSD Apoptosis Panel; assay type: cell-based, human; conditions: 72 h, 1 μM of each agent, versus vehicle-treated control
Procedure: 1.5×10^6 MCF7aro cells were plated in 10 cm dishes in starvation medium (MEM alpha without phenol red, supplemented with 10% charcoal stripped FBS, 2 mM GlutaMAX and 1 mM sodium pyruvate). After overnight incubation, medium was changed to assay medium (MEM alpha without phenol red, supplemented with 10% charcoal stripped FBS, 2 mM GlutaMAX, 1 mM sodium pyruvate and 1 nM androstenedione) and the cells were treated with vehicle (DMSO), or 1 μM of IGF Ab 60833, or 1 μM exemestane, or 1 μM everolimus, or a combination of exemestane and everolimus, or a combination of all three inhibitors. At 72 h post treatment, the cells were lysed on ice with MSD Tris Lysis Buffer containing 20 mM Tris pH 7.5, 150 mM NaCl, 1 mM EDTA, 1 mM EGTA, 1% Triton X-100, completed with protease and phosphatase inhibitor cocktails. Prior to use, freshly prepared 2 mM PMSF was added to the buffer.
as §1
Cells lysates were prepared according to the Meso Scale Discovery cell lysis protocol. 20 μg of clarified lysate was analyzed in duplicates with MSD Apoptosis Panel Whole Cell Lysate Kit, measuring cleaved PARP signals, according to the manufacturer's instructions. Plates were read on the SECTOR Imager 6000 plate reader.

MCF7aro cells = test: Cell proliferation assay of adherently growing MCF7aro breast cancer cells (AlamarBlue cell viability); assay type: cell-based, human; conditions: 6 days of incubation, mean of three independent experiments, everolimus up to 50 nM, exemestane up to 200 nM, triple combination with fixed 10 nM IGF Ab 60833
Procedure: Three independent experiments were conducted to determine the anti-proliferative effect of IGF Ab 60833 in combination with everolimus and exemestane in MCF7aro breast cancer cells. Cell proliferation and viability following 6 days of incubation with test compounds was determined using an assay that monitors the reducing environment of the living cells in each assay well.
For cell proliferation assays and Western Blot analysis the cells were steroid-deprived for 72 h by cultivation in starvation medium (MEM alpha without phenol red, supplemented with 10% charcoal stripped FBS, 2 mM GlutaMAX and 1 mM sodium pyruvate). […]
The final concentration of the solvent DMSO in the test wells was 0.1%. Everolimus and exemestane were tested at 5 concentrations, each measured in duplicate wells, as single agents or in combination.
After 2 days of incubation with test compounds in a humidified incubator at 37° C. and 5% CO2, medium was changed to fresh assay medium and compounds were added again. […] Total fluorescence intensity of each well was then measured in a Wallac VICTOR Multilabel Counter using an excitation wavelength of 544 nm and measuring emission at 590 nm.
At the time of test compound addition, “time zero” (t=0) untreated cell plates were stained with AlamarBlue® Cell Viability Reagent. […] After incubation for 6 hours at 37° C. and 5% CO2, total fluorescence intensity was measured. […]

[3] = system: advanced hormone receptor-positive, HER2-negative breast cancer; conditions: cited from earlier work
[4] = system: hormone refractory, hormone receptor-positive, HER2-negative metastatic breast cancer; conditions: hormone refractory HR+, HER2-negative metastatic breast cancer patients; cited from earlier work

Structure (SMILES) | pAKT S473 and T308 levels by Western blot [1] | pS6 (S235/236) signal by Western blot [1] | levels of cleaved PARP (marker for apoptosis) [2] | maximal mean CGI (cell growth inhibition) (MCF7aro cells) [%] | median progression-free survival ([3]; by local investigator assessment) [months] | overall response rate ([3]; in vivo) [%] | time to progression (PFS) [4] [months]
CO[C@H]1C[C@@H]2CC[C@@H](C)[C@@](O)(O2)C(=O)C(=O)N2CCCC[C@H]2C(=O)O[C@H]([C@H](C)C[C@@H]2CC[C@@H](OCCO)[C@H](OC)C2)CC(=O)[C@H](C)/C=C(\C)[C@@H](O)[C@@H](OC)C(=O)[C@H](C)C[C@H](C)/C=C/C=C/C=C/1C [everolimus] | increased compared to the vehicle (DMSO)-treated control | reduced pS6 signal | comparable to or only marginally higher than the level in the vehicle-treated control | 47 | – | – | –
C=C1C[C@@H]2[C@H](CC[C@]3(C)C(=O)CC[C@@H]23)[C@@]2(C)C=CC(=O)C=C12 [exemestane, 6-Methylideneandrosta-1,4-diene-3,17-dione] | – | – | comparable to or only marginally higher than the level in the vehicle-treated control | 60 | 3.2 | 1.7 | –
CC/C(=C(\c1ccccc1)c1ccc(OCCN(C)C)cc1)c1ccccc1 [tamoxifen] | – | – | – | – | – | – | 4.5
